Measured values as given in ChEMBL document CHEMBL2010751, “Synthesis of a novel suppressor of beta-cell apoptosis via diversity-oriented synthesis” (ACS Med Chem Lett, 2011).
Activity calls are given as the source filed them. The rule behind the calls is not given here.

Columns and labels:
[1] = Inhibition of IL-1beta, IFN-gamma and TNF-alpha-induced apoptosis of rat INS-1E cells assessed as maximum activity to restoring cell viability after 48 hrs by luciferase based CellTiter-Glo assay; assay type: functional
[2] = Inhibition of IL-1beta, IFN-gamma and TNF-alpha-induced apoptosis of rat INS-1E cells assessed as restoring cell viability after 48 hrs by luciferase based CellTiter-Glo assay; assay type: functional
INS-1E [3] = experiment: Inhibition of IL-1beta, IFN-gamma and TNF-alpha-induced apoptosis of rat INS-1E cells assessed as restoration of mitochondrial membrane potential at 0.25 to 5 uM after 48 hrs by JC-1 staining analysis; assay type: functional, cell-based
INS-1E [4] = experiment: Inhibition of IL-1beta, IFN-gamma and TNF-alpha-induced apoptosis of rat INS-1E cells assessed as glucose-stimulated insulin secretion at 5 uM after 48 hrs by ELISA; assay type: functional, cell-based
INS-1E [5] = experiment: Inhibition of IL-1beta, IFN-gamma and TNF-alpha-induced apoptosis of rat INS-1E cells assessed as decrease in nitrite production after 48 hrs by Griess assay; assay type: functional, cell-based
INS-1E [6] = experiment: Inhibition of IL-1beta, IFN-gamma and TNF-alpha-induced apoptosis of rat INS-1E cells assessed as decrease in caspase-3 activity after 48 hrs by luminescence assay; assay type: functional, cell-based

SMILES	Activity [1] [%]	EC50 [2] [µM]	inhibition (INS-1E [3])	inhibition (INS-1E [4])	inhibition (INS-1E [5])	inhibition (INS-1E [6])
COc1ccc(S(=O)(=O)N(C)C[C@@H]2Oc3c(NC(=O)Nc4cccc5ccccc45)cccc3C(=O)N([C@@H](C)CO)C[C@H]2C)cc1	62	4.89	–	–	–	–
C[C@@H]1CN([C@@H](C)CO)C(=O)c2cccc(NC(=O)Nc3cccc4ccccc34)c2O[C@H]1CN(C)S(=O)(=O)c1ccc(Oc2ccccc2)cc1	0	> 20	–	–	–	–
COc1ccccc1S(=O)(=O)N(C)C[C@@H]1Oc2c(NC(=O)Nc3cccc4ccccc34)cccc2C(=O)N([C@@H](C)CO)C[C@H]1C	0	> 20	–	–	–	–
CC(C)N1C[C@@H](C)[C@H](CN(C)S(=O)(=O)c2ccc3c(c2)OCCO3)Oc2c(NC(=O)Nc3cccc4ccccc34)cccc2C1=O	89	2.79	–	–	–	–
C[C@@H]1CN([C@@H](C)CO)C(=O)c2cccc(NC(=O)Nc3cccc(Cl)c3Cl)c2O[C@H]1CN(C)S(=O)(=O)c1ccc2c(c1)OCCO2	0	> 20	–	–	–	–
COc1ccc(S(=O)(=O)N(C)C[C@@H]2Oc3c(NC(=O)NC4CCCc5ccccc54)cccc3C(=O)N([C@@H](C)CO)C[C@H]2C)cc1 (stereo partly drawn)	0	> 20	–	–	–	–
COc1ccc(S(=O)(=O)N(C)C[C@@H]2Oc3c(NC(=O)Nc4cccc5c4CCCC5)cccc3C(=O)N([C@@H](C)CO)C[C@H]2C)cc1	0	> 20	–	–	–	–
COc1ccc(S(=O)(=O)N(C)C[C@@H]2Oc3c(NC(=O)Nc4cccc5ccccc45)cccc3C(=O)N(C(C)C)C[C@H]2C)cc1	76	3.06	–	–	–	–
COc1ccc(S(=O)(=O)N(C)C[C@@H]2Oc3c(NC(=O)Nc4cccc5ccccc45)cccc3C(=O)N([C@@H](C)CO)C[C@H]2C)cc1C	76	3.5	–	–	–	–
COc1ccc(S(=O)(=O)N(C)C[C@@H]2Oc3c(NC(=O)Nc4ccc5occc5c4)cccc3C(=O)N([C@@H](C)CO)C[C@H]2C)cc1	0	> 20	–	–	–	–
COc1cccc(S(=O)(=O)N(C)C[C@@H]2Oc3c(NC(=O)Nc4cccc5ccccc45)cccc3C(=O)N([C@@H](C)CO)C[C@H]2C)c1	0	> 20	–	–	–	–
C[C@@H]1CN([C@@H](C)CO)C(=O)c2cccc(NC(=O)Nc3cccc4ccccc34)c2O[C@H]1CN(C)S(=O)(=O)c1ccc2c(c1)OCCO2	99	0.78	Active	Active	Dose-dependent effect	Dose-dependent effect
